{"source": "patent US8530419B2", "about": "“Process for the synchronization of ovulation for timed breeding without heat detection” (priority 2003, dated 2013)", "assay_type_in_all_cases": "in vivo, swine", "key": {"[1]": {"test_system": "postpartum sows", "test": "Litter size after deslorelin treatment at three farm sites (Example 4)", "conditions": "Tables 3, 4 and 5; regardless of estrus detection", "from_the_text": "Postpartum sows were randomly distributed into three different groups comprised of Controls, Treatment 1, and Treatment 2, with the exception of Site 3, which was divided into two groups, Control and Treatment 2. Control sows were detected for estrus following weaning, and bred following the normal standard operating procedures for the farms on which they resided. Treatment 1 sows were detected for estrus following weaning, and received a 50 mcg dose of deslorelin in the morning when standing and were bred by AI 4 hours later and again at 24+/−2 hours later. Treatment 2 sows received a 50 mcg dose of deslorelin in SAIB at 96 or 120 hours post-weaning and were bred with a single insemination 28+/−2 hours later with no regard to estrus detection."}, "[2]": {"test_system": "ovariectomized estrogen primed gilt", "test": "Dose response study of LH release in ovariectomized estrogen primed gilt model (RIA)", "conditions": "single injection of 50 mcg deslorelin in SAIB", "method": "A dose response study was performed using deslorelin in SAIB in an ovariectomized estrogen primed gilt model (Barb, et at (1999) Proceed. Int'l. Symp. Control, Rel. Bioact. Mater., 26)."}, "[3]": {"test_system": "postpartum sows", "test": "Timed deslorelin injection 96 hours post-weaning, single timed insemination without estrus detection (Example 3)", "method": "Approximately 170 postpartum sows were randomly divided into two equal groups comprised of controls and treated. Following weaning, the controls were detected for estrus and bred following the normal standard operating procedures for the farms on winch they resided. The treated sows received a 50 mcg dose of deslorelin in SAIB at 96 hours post-weaning and were bred with a single insemination 28+/−2 hours later with no regard to estrus detection. The sows were examined for pregnancy by ultrasound at 21 days and slaughtered around 28 days post breeding. The entire reproductive tract was removed and corpora lutea and embryos were counted."}}}
{"compound": "CCNC(=O)[C@@H]1CCCN1C(=O)[C@H](CCCN=C(N)N)NC(=O)[C@H](CC(C)C)NC(=O)[C@@H](Cc1c[nH]c2ccccc12)NC(=O)[C@H](Cc1ccc(O)cc1)NC(=O)[C@H](CO)NC(=O)[C@H](Cc1c[nH]c2ccccc12)NC(=O)[C@H](Cc1cnc[nH]1)NC(=O)[C@@H]1CCC(=O)N1", "note": "[Deslorelin, deslorelin]", "values": [{"measurement": "litter sizes (in words)", "setting": "[1]", "value": "normal litter sizes"}, {"measurement": "time at which LH returned to base level", "setting": "[2]", "value": "≤ 18", "unit": "h"}, {"measurement": "LH peak", "setting": "[2]; compared to Hansel et al. (1973)", "value": "about twice normal value"}, {"measurement": "Pregnancy Rate", "setting": "[3]; 50 mcg in SAIB at 96 hours post-weaning, single insemination 28+/-2 hours later, no estrus detection", "value": 71, "unit": "%"}, {"measurement": "Embryo Survival", "setting": "[3]; 50 mcg in SAIB at 96 hours post-weaning, slaughtered around 28 days post breeding", "value": 64, "unit": "%"}, {"measurement": "pregnancy rates (in words)", "setting": "[3]; single timed injection post-weaning, single timed insemination, no estrus detection", "value": "normal pregnancy rates were attained"}]}
